From the SangsterLogP compilation

| SMILES | logP |
| --- | --- |
| CC(=O)Nc1ccc(C(=O)O)cc1 | 1.31 |
| Nc1ccc(C(=O)NCC(=O)O)cc1 | -0.89 |
| COCc1ccccc1 | 1.92 |
| c1ccc2cc3c(ccc4ccccc43)cc2c1 | 5.76 |
| CCI | 2 |
| C[C@]12CCC(=O)C=C1CC[C@@H]1[C@@H]2[C@@H](O)C[C@]2(C=O)[C@@H](C(=O)CO)CC[C@@H]12 | 1.08 |
| CCc1ccccc1O | 2.47 |
| Nc1ccc(Cl)cc1 | 1.83 |
| CSc1nncc(=O)n1N | 0.38 |
| O=C(O)Cc1ccc([N+](=O)[O-])cc1 | 1.39 |
| N#Cc1cccc(OCC(=O)O)c1 | 0.95 |
| CN | -0.57 |
| CC1(C)SC2C(NC(=O)C(O)c3ccccc3)C(=O)N2C1C(=O)O (stereo not drawn) | 1.4 |
| CN1c2ccccc2C=CC1O (stereo not drawn) | 1.45 |
| CCCCCn1nnc2ccccc21 | 3.22 |
| NNC(=O)c1ccccc1 | 0.19 |
| c1ccc2sccc2c1 | 3.12 |
| c1ccc2c(c1)Nc1ccccc1S2 | 4.15 |
| Cc1ccccc1N | 1.32 |
| O=C(O)c1ccccc1O | 2.26 |
| O=C1CCCCCN1 | -0.19 |
| Cl[C@H]1[C@H](Cl)[C@@H](Cl)[C@@H](Cl)[C@H](Cl)[C@H]1Cl | 3.72 |
| O=C1NC(=O)C(c2ccccc2)(c2ccccc2)C(=O)N1 | 1.96 |
| O=C(O)CONC(=O)Nc1ccccc1 | 0.26 |
| Cc1ccnc(N)c1 | 0.56 |
| OCC(F)(F)F | 0.41 |

| SMILES | logP |
| --- | --- |
| O=[N+]([O-])/C=C/c1ccccc1 | 2.11 |
| Nc1ccn([C@H]2C[C@H](F)[C@@H](CO)O2)c(=O)n1 | -0.89 |
| CC(N)C(O)c1ccccc1 (stereo not drawn) | 0.67 |
| CO | -0.77 |
| CNC(=O)Oc1ccc(F)cc1 | 1.28 |
| Nc1ccc(Cl)c(Cl)c1 | 2.69 |
| CNc1ccc([N+](=O)[O-])cc1 | 2.04 |
| CNCC(O)c1ccc(O)c(O)c1 (stereo not drawn) | -1.37 |
| C[N+]1([O-])C2CCC1CC(OC(=O)C(CO)c1ccccc1)C2 (stereo not drawn) | 0.98 |
| C[C@@H]1C[C@H]2[C@@H]3CCC4=CC(=O)C=C[C@]4(C)[C@@]3(F)[C@@H](O)C[C@]2(C)[C@@]1(O)C(=O)CO | 1.83 |
| O=Nc1c(O)ccc2ccccc12 | 2.28 |
| CC(=O)Oc1ccccc1C(=O)O | 1.19 |
| CN(C)S(=O)(=O)c1ccc(N)cc1 | 0.67 |
| CC1CC(C)C(=O)C(C(O)CC2CC(=O)NC(=O)C2)C1 (stereo not drawn) | 0.55 |
| O=CO | -0.54 |
| CCN(CC)c1ccccc1 | 3.31 |
| Nc1ccn([C@H]2C[C@H](O)[C@@H](CO)O2)c(=O)n1 | -1.77 |
| CSc1nnc(CCC(C)C)c(=O)n1N | 1.85 |
| CC#N | -0.34 |
| O=[N+]([O-])c1ccc2c(c1)c([N+](=O)[O-])cc[n+]2[O-] | 0.9 |
| CNC(=O)Oc1cc(C)cc(C)c1 | 2.23 |
| CN(C)C(=O)COc1ccccc1 | 0.8 |
| O=C(O)c1ccccc1Nc1cccc(C(F)(F)F)c1 | 5.25 |
| O=C(c1ccccc1)c1ccncc1 | 1.98 |
| O=C(O)COc1ccccc1Cl | 1.86 |
| Brc1cnc2ccccc2c1 | 3.03 |

| SMILES | logP |
| --- | --- |
| CN(C)c1ccc(S(N)(=O)=O)cc1 | 0.76 |
| COC(=O)C(C#N)=NNc1cc(Cl)cc(Cl)c1 | 4.5 |
| Nc1cccc(Cl)c1 | 1.88 |
| CC(C)(C)NCC(O)COc1nsnc1N1CCOCC1 (stereo not drawn) | 1.83 |
| NS(=O)(=O)c1ccc(Cl)cc1 | 1.15 |
| CCCCOCCO | 0.83 |
| OCc1ccc(Cl)cc1 | 1.96 |
| Clc1cccc(-c2ccccc2)c1 | 4.58 |
| Nc1ncnc2c1ncn2[C@H]1CC[C@@H](CO)O1 | -0.25 |
| Nc1cccc(S(N)(=O)=O)c1 | -0.38 |
| Oc1ccccc1I | 2.65 |
| CCS(=O)(=O)CCn1c([N+](=O)[O-])cnc1C | -0.35 |
| COC(=O)C(C#N)=NNc1cc(C(F)(F)F)ccc1Cl | 4.42 |
| CCOc1ccc(O)cc1 | 1.81 |
| COc1nnc(C(C)C)c(=O)n1N | -0.06 |
| CN(C)C(=O)Nc1cccc(Cl)c1 | 2 |
| Nc1nc2[nH]nnc2c(=O)[nH]1 | -0.71 |
| ClCCl | 1.25 |
| O=[N+]([O-])c1ccccc1 | 1.85 |
| OC1OC[C@@H](O)[C@@H](O)[C@H]1O (stereo partly drawn) | -2.32 |
| NC(=O)N(CCCl)N=O | 0.57 |
| Nc1ccccc1[N+](=O)[O-] | 1.85 |
| O=C(O)c1ccccc1Oc1ccccc1 | 3.11 |
| CCCCCO | 1.51 |
| CCOC(=O)Nc1ccccc1 | 2.3 |
| COc1cc(C(=O)NN)ccn1 | -0.1 |

| SMILES | logP |
| --- | --- |
| NCc1cccnc1 | -0.32 |
| CCCCc1ccc(C(=O)O)nc1 | -1.29 |
| CCNC(=O)c1ccc(S(N)(=O)=O)cc1 | 0.03 |
| CCC(=O)c1cccc(OC(=O)NC)c1 | 1.49 |
| NC(=O)NO | -1.8 |
| Nc1ccccc1-c1ccccc1 | 2.84 |
| CS(=O)(=O)c1ccccc1 | 0.5 |
| COc1ccc(CC(C)N)c(OC)c1 (stereo not drawn) | 1.75 |
| CCC#N | 0.16 |
| CCN(C)C | 0.7 |
| C[C@H](CS)C(=O)N1CCC[C@H]1C(=O)O | 0.34 |
| OCc1ccc(O)cc1 | 0.25 |
| CCCCNC(=O)NCCCC | 1.4 |
| Nc1ncnc2c1ncn2[C@H]1C[C@H](O)[C@@H](CO)O1 | -0.55 |
| CCCCCCCCCC | 5.01 |
| O=C1CCCO1 | -0.64 |
| NS(=O)(=O)c1cccc([N+](=O)[O-])c1 | 0.55 |
| CN1C(=O)NC(=O)C(C)(C2=CCCCC2)C1=O (stereo not drawn) | 1.98 |
| CC1(C)S[C@@H]2[C@H](NC(=O)COc3ccccc3)C(=O)N2[C@H]1C(=O)O | 2.09 |
| CC(=O)Nc1ccc([N+](=O)[O-])cc1 | 1.66 |
| Oc1cc(O)cc(O)c1 | 0.16 |
| COc1ccccc1O | 1.32 |
| COc1cccc(CC(C)N)c1OC (stereo not drawn) | 1.49 |
| CNc1ccccc1 | 1.66 |
| O=C(Nc1ccccc1)c1ccccc1O | 3.27 |
| CNC(=O)Oc1ccc(C(C)C)c(C)c1 | 3.11 |

| SMILES | logP |
| --- | --- |
| Nc1ccc(Oc2ccccc2)cc1 | 2.96 |
| C[C@]12CCC(=O)C=C1CC[C@@H]1[C@@H]2C(=O)C[C@@]2(C)[C@H]1CC[C@]2(O)C(=O)CO | 1.47 |
| Cc1cnccn1 | 0.21 |
| CC(C)Sc1nnc(C(C)C)c(=O)n1N | 2.06 |
| O=c1[nH]cc(F)c(=O)[nH]1 | -0.89 |
| Cc1cc2ccccc2n1C | 2.82 |
| COC(=O)C(C#N)=NNc1ccccc1 | 2.59 |
| CNC(=O)Oc1ccccc1I | 1.94 |
| CC(=O)c1cccc(OCC(=O)O)c1 | 0.98 |
| O=C(O)Cc1ccc(I)cc1 | 2.64 |
| Nc1ccccc1C(=O)O | 1.21 |
| COP(=O)(OC)OC | -0.65 |
| Nc1cc[nH]c(=O)n1 | -1.73 |
| O=[N+]([O-])c1cc[n+]([O-])c2c(F)cccc12 | 1 |
| N#Cc1ccc(NC=O)cc1 | 1.08 |
| CCOCCO | -0.32 |
| CC(C)[C@H](N)C(=O)O | -2.26 |
| Cc1cccnc1 | 1.2 |
| NS(=O)(=O)c1ccc(O)cc1 | 0.06 |
| c1cnc2c(c1)ccc1ncccc12 | 2.51 |
| OC(c1ccccc1)C1CC1 (stereo not drawn) | 1.95 |
| Nc1ccc2ncccc2c1 | 1.28 |
| CN/C(=C\[N+](=O)[O-])NCCSCc1ccc(CN(C)C)o1 | 0.27 |
| CC(=O)Nc1ccc(F)cc1 | 1.47 |
| N#Cc1ccc(C(=O)O)cc1 | 1.56 |
| Cn1c([N+](=O)[O-])cnc1COC(N)=O | -0.38 |

| SMILES | logP |
| --- | --- |
| O=[N+]([O-])c1cc2ccccc2[n+]([O-])c1 | 0.56 |
| Cc1ccc2cccc(O)c2n1 | 2.33 |
| NS(=O)(=O)c1cccc(Cl)c1 | 1.29 |
| Cc1cccc(Nc2ccccc2C(=O)O)c1C | 5.12 |
| CCN | -0.13 |
| CN(C)CCCN1c2ccccc2Sc2ccccc21 | 4.55 |
| CC(N)C(O)c1cccc(O)c1 (stereo not drawn) | -0.27 |
| OCc1ccncc1 | 0.06 |
| OC1CCCCC1 | 1.23 |
| CN(Cc1ccccc1)c1ccccc1 | 4.22 |
| Cc1ccnc2c(O)cccc12 | 2.41 |
| Nc1ccc(S(=O)(=O)Nc2ccnn2-c2ccccc2)cc1 | 1.52 |
| CCCCCBr | 3.37 |
| O=C(O)C(c1ccccc1)c1ccccc1 | 3.09 |
| NC(=O)c1ccc(Cl)cc1 | 1.55 |
| O=C(CCNNC(=O)c1ccncc1)NCc1ccccc1 | 0.87 |
| Oc1cccc(F)c1 | 1.93 |
| O=C1NC(=O)C(c2ccccc2)(c2ccccc2)N1 | 2.47 |
| OCc1ccccc1O | 0.73 |
| CN(C)CCN1c2ccccc2Sc2ccccc21 | 4.2 |
| O=[N+]([O-])c1cc[n+]([O-])c2c([N+](=O)[O-])cccc12 | 0.76 |
| NC(=O)Cc1ccncc1 | -0.65 |
| CC(C)(C)CO | 1.31 |
| CC(=O)c1ccc(Cl)cc1 | 2.32 |
| CC(C)=O | -0.24 |
| CNC(=O)Oc1cc(C)ccc1C(C)C | 3.11 |

| SMILES | logP |
| --- | --- |
| O=C(O)COc1ccccc1F | 1.39 |
| O=C1O[C@H]([C@@H](O)CO)C(O)=C1O | -1.85 |
| CC(=O)c1ccc(N)cc1 | 0.83 |
| Cc1ncc(CO)c(CN)c1O | -1.3 |
| NC(=O)CCCc1cccnc1 | -0.08 |
| O=C1CNC(=O)N1 | -1.69 |
| CC1=C(C(=O)Nc2ccccc2)SCCO1 | 2.14 |
| CNC(=O)Oc1cccc(OC)c1 | 1.3 |
| Cc1c[n+]([O-])c2ccccc2c1[N+](=O)[O-] | 1.06 |
| Nc1nc2c(ncn2[C@H]2C[C@H](O)[C@@H](CO)O2)c(=S)[nH]1 | -0.79 |
| C1CC1 | 1.72 |
| CCCc1ccc(S(N)(=O)=O)cc1 | 1.64 |
| COC(=O)c1ccccc1O | 2.55 |
| CC(C)c1nnc(N2CCOCC2)n(N)c1=O | 0.49 |
| OCC1OC(n2cnc3c(S)ncnc32)C(O)C1O (stereo not drawn) | -0.6 |
| O=C(O)c1cccnc1 | 0.36 |
| O=C(O)c1ccccc1Nc1ccccc1 | 4.36 |
| OCC(Cl)(Cl)Cl | 1.42 |
| NC1=C(Cl)C(=O)c2ccccc2C1=O | 2.12 |
| CC(C)NCC(O)c1ccc(NS(C)(=O)=O)cc1 (stereo not drawn) | 0.24 |
| Cc1ccc(C)cc1 | 3.15 |
| Cc1cn([C@H]2C=C[C@@H](CO)O2)c(=O)[nH]c1=O | -0.72 |
